In one assay the test system is ZR-75-1. Nature of the assay: Caspase cascade activation assay in ZR-75-1 cells (N-(Ac-DEVD)-N'-ethoxycarbonyl-R110 fluorogenic substrate). It is filed as cell-based. The following applies: ZR-75-1 human breast cancer cells, 24 h incubation; for Caspase activity (Ratio): ratio of net RFU of test compound to control; for EC50: sigmoidal dose-response, read-out: Caspase potency EC50. As for the experimental part: (§1) Human breast cancer cell lines T-47D and ZR-75-1 were grown according to media component mixtures designated by American Type Culture Collection+10% FCS (Invitrogen Corporation), in a 5% CO2-95% humidity incubator at 37° C. T-47D and ZR-75-1 cells were maintained at a cell density between 30 and 80% confluency at a cell density of 0.1 to 0.6×10^6 cells/mL. Cells were harvested at 600×g and resuspended at 0.65×10^6 cells/mL into appropriate media+10% FCS. An aliquot of 45 μl of cells was added to a well of a 96-well microtiter plate containing 5 μl of a 10% DMSO in RPMI-1640 media solution containing about […] of 2-amino-3-cyano-4-(5-methyl-pyridin-3-yl)-7-methyl-4H-pyrrolo[2,3-h]chromene (Example 10) or other test compound (0.016 to 1 μM final). An aliquot of 45 μl of cells was added to a well of a 96-well microtiter plate containing 5 μl of a 10% DMSO in RPMI-1640 media solution without test compound as the control sample. The samples were mixed by agitation and then incubated at 37° C. for 24 h in a 5% CO2-95% humidity incubator. After incubation, the samples were removed from the incubator and 50 μl of a solution containing 20 μM of N-(Ac-DEVD)-N′-ethoxycarbonyl-R110 (SEQ ID No:1) fluorogenic substrate (Cytovia, Inc.; U.S. Pat. No. 6,335,429), 20% sucrose (Sigma), 20 mM DTT (Sigma), 200 mM NaCl (Sigma), 40 mM Na PIPES buffer pH 7.2 (Sigma), and 500 μg/ml lysolecithin (Calbiochem) was added. The samples were mixed by agitation and incubated at room temperature. Using a fluorescent plate reader (Model 1420 Wallac Instruments), an initial reading (T=0) was made approximately 1-2 min after addition of the substrate solution, employing excitation at 485 nm and emission at 530 nm, to determine the background fluorescence of the control sample. After the 3 h incubation, the samples were read for fluorescence as above (T=3 h).
(§2) The Relative Fluorescence Unit values (RFU) were used to calculate the sample readings as follows: RFU(T=3h)−Control RFU(T=0)=Net RFU(T=3h) The activity of caspase cascade activation was determined by the ratio of the net RFU value for 2-amino-3-cyano-4-(5-methyl-pyridin-3-yl)-7-methyl-4H-pyrrolo[2,3-h]chromene or other test compound to that of control samples. The EC50 (nM) was determined by a sigmoidal dose-response calculation (Prism 2.0, GraphPad Software Inc.).

The next assay relates to T-47D. Nature of the assay: Caspase cascade activation assay in T-47D cells (N-(Ac-DEVD)-N'-ethoxycarbonyl-R110 fluorogenic substrate). The assay is classed as cell-based. The note with it: T-47D human breast cancer cells, 24 h incubation; for EC50: sigmoidal dose-response, read-out: Caspase potency EC50; for Caspase activity (Ratio): ratio of net RFU of test compound to control. The method, then:
as §1, §2

Like-named read-outs stand apart in the source and are kept apart here.

For orientation: EC50 means the concentration at which the effect is half-maximal. `COc1cc(C2C(C#N)=C(N)Oc3c2ccc2c3CCN2C)cc(Br)c1OC` (centres unmarked) [Example 23, 2-Amino-4-(3-bromo-4,5-dimethoxyphenyl)-3-cyano-8,9-dihydro-7-methyl-4H-pyrrolo[2,3-h]chromene]: the results for the “Caspase activity (Ratio)” value in the assay on ZR-75-1 and in the assay with T-47D were 5.0 and 5.2, respectively. Further, the results for the EC50 with ZR-75-1 and in the assay with T-47D (T47D) were 2.3 nM and 3.3 nM, respectively.

On to `COc1cc(C2C(C#N)=C(N)Oc3c2ccc2c3ccn2C)cc(OC)c1OC` (centres unmarked) [Example 24, 2-Amino-3-cyano-4-(3,4,5-trimethoxyphenyl)-7-methyl-4H-pyrrolo[2,3-h]chromene], for which the “Caspase activity (Ratio)” value with ZR-75-1 turned out to be 7.1; with T-47D, 5.5. Further, the EC50 in the assay with ZR-75-1 came out at 2.2 nM; in the assay on T-47D (T47D), 3.4 nM.

Take `Cn1ccc2c3c(ccc21)C(c1cccc([N+](=O)[O-])c1)C(C#N)=C(N)O3` (centres unmarked) [Example 25, 2-Amino-3-cyano-4-(3-nitrophenyl)-7-methyl-4H-pyrrolo[2,3-h]chromene]: the figures for the “Caspase activity (Ratio)” value in the assay with ZR-75-1 and in the assay on T-47D were 7.1 and 3.2, respectively. The concentration giving a half-maximal response (EC50) came out at 3.2 nM with ZR-75-1 and 7.2 nM with T-47D (T47D).

Turning to `COc1cc(OC)cc(C2C(C#N)=C(N)Oc3c2ccc2c3ccn2C)c1` (centres unmarked) [Example 26, 2-Amino-3-cyano-4-(3,5-dimethoxyphenyl)-7-methyl-4H-pyrrolo[2,3-h]chromene], the “Caspase activity (Ratio)” value in the assay on ZR-75-1 stood at 7.1; with T-47D, 5.2. In addition, the EC50 in the assay on ZR-75-1 was determined as 1.7 nM; in the assay on T-47D (T47D), 3.5 nM.

On to `COc1cccc(C2C(C#N)=C(N)Oc3c2ccc2c3ccn2C)c1` (centres unmarked) [Example 28, 2-Amino-3-cyano-4-(3-methoxyphenyl)-7-methyl-4H-pyrrolo[2,3-h]chromene], for which the entries for the “Caspase activity (Ratio)” value in the assay on ZR-75-1 and in the assay with T-47D were 6.3 and 4.6, respectively. Also, the EC50 in the assay on ZR-75-1 was found to be 3.3 nM; with T-47D (T47D) it was 7.2 nM.

As to `Cn1ccc2c3c(ccc21)C(c1cccc(Br)c1)C(C#N)=C(N)O3` (centres unmarked) [Example 29, 2-Amino-3-cyano-4-(3-bromophenyl)-7-methyl-4H-pyrrolo[2,3-h]chromene], the “Caspase activity (Ratio)” value was found to be 6.3 in the assay on ZR-75-1 and 3.3 in the assay on T-47D. Moreover, the figures for the EC50 in the assay with ZR-75-1 and in the assay on T-47D (T47D) were 5.7 nM and 12 nM, respectively.

In the case of `Cn1ccc2c3c(ccc21)C(c1cc(F)cc(F)c1)C(C#N)=C(N)O3` (centres unmarked) [Example 30, 2-Amino-3-cyano-4-(3,5-difluorophenyl)-7-methyl-4H-pyrrolo[2,3-h]chromene], the “Caspase activity (Ratio)” value is 5.6 in the assay on ZR-75-1 and 3.6 in the assay with T-47D. The concentration giving a half-maximal response (EC50) in the assay on ZR-75-1 came out at 3.4 nM; in the assay on T-47D (T47D), 7.3 nM.

For the compound `COc1cc(C2C(C#N)=C(N)Oc3c2ccc2c3ccn2C)cc(I)c1OC` (centres unmarked) [Example 31, 2-Amino-3-cyano-4-(4,5-dimethoxy-3-iodophenyl)-7-methyl-4H-pyrrolo[2,3-h]chromene], the “Caspase activity (Ratio)” value was 4.3 in the assay with ZR-75-1 and 6.3 in the assay with T-47D. The EC50 in the assay with ZR-75-1 was 3.7 nM; in the assay on T-47D (T47D) it was 4.9 nM.

For `Cn1ccc2c3c(ccc21)C(c1cccc(C#N)c1)C(C#N)=C(N)O3` (centres unmarked) [Example 32, 2-Amino-3-cyano-4-(3-cyanophenyl)-7-methyl-4H-pyrrolo[2,3-h]chromene], the “Caspase activity (Ratio)” value is 3.6 in the assay with ZR-75-1 and 5.3 in the assay on T-47D. In addition, the values for the EC50 in the assay with ZR-75-1 and in the assay with T-47D (T47D) were 2.9 nM and 6.9 nM, respectively.

Consider `COc1cc(C2C(C#N)=C(N)Oc3c2ccc2c3ccn2CO)cc(OC)c1OC` (centres unmarked) [Example 33, 2-Amino-3-cyano-4-(3,4,5-trimethoxyphenyl)-7-hydroxymethyl-4H-pyrrolo[2,3-h]chromene], for which the “Caspase activity (Ratio)” value was 3.0 in the assay on ZR-75-1 and 4.3 in the assay with T-47D. Also, the EC50 with ZR-75-1 is 3.3 nM; in the assay with T-47D (T47D) it was 6.2 nM.

Regarding `COc1cc(OC)cc(C2C(C#N)=C(N)Oc3c2ccc2c3ccn2CO)c1` (centres unmarked) [Example 34, 2-Amino-3-cyano-4-(3,5-dimethoxyphenyl)-7-hydroxymethyl-4H-pyrrolo [2,3-h]chromene], the “Caspase activity (Ratio)” value in the assay with ZR-75-1 was 3.9; in the assay on T-47D it was 3.3. Moreover, the EC50 in the assay on ZR-75-1 came out at 6.5 nM; with T-47D (T47D), 7.1 nM.

As for `CN1CCc2c1ccc1c2OC(N)=C(C#N)C1c1cc(F)cc(F)c1` (centres unmarked) [Example 35, 2-Amino-3-cyano-4-(3,5-difluorophenyl)-8,9-dihydro-7-methyl-4H-pyrrolo [2,3-h]chromene], the figures for the “Caspase activity (Ratio)” value in the assay with ZR-75-1 and in the assay on T-47D were 5.5 and 4.3, respectively. Further, the concentration for a half-maximal effect (EC50) in the assay with ZR-75-1 came out at 10 nM; in the assay with T-47D (T47D), 28 nM.

Take `Cc1cncc(C2C(C#N)=C(N)Oc3c2ccc2c3CCN2C)c1` (centres unmarked) [Example 36, 2-Amino-4-(5-methyl-pyridin-3-yl)-3-cyano-7-methyl-8,9-dihydro-4H-pyrrolo[2,3-h]chromene]: the figures for the “Caspase activity (Ratio)” value in the assay on ZR-75-1 and in the assay with T-47D were 6.3 and 4.6, respectively. The EC50 is 5 nM in the assay on ZR-75-1 and 13 nM in the assay with T-47D (T47D).

For `Cn1ccc2c3c(ccc21)C(c1ccc([N+](=O)[O-])s1)C(C#N)=C(N)O3` (centres unmarked) [Example 37, 2-Amino-4-(5-nitro-thiophene-2-yl)-3-cyano-7-methyl-4H-pyrrolo[2,3-h]chromene], the “Caspase activity (Ratio)” value in the assay on ZR-75-1 is recorded as 6.7; in the assay on T-47D, 2.0. Besides, the EC50 was 36 nM in the assay on ZR-75-1 and more than 100 nM in the assay with T-47D (T47D).

Consider `CCC=CCC=CCC=CCC=CCC=CCC=CCCC(=O)OCn1ccc2c3c(ccc21)C(c1cc(Br)c(OC)c(OC)c1)C(C#N)=C(N)O3` (centres unmarked) [Example 38, 4,7,10,13,16,19-Docosahexaenoic acid {2-Amino-4-(3-bromo-4,5-dimethoxy-phenyl)-3-cyano-4H-pyrrolo[2,3-h]chromene}-7-ylmethyl ester], for which the “Caspase activity (Ratio)” value in the assay with ZR-75-1 stood at 6.9; with T-47D it was 5.2. Also, the EC50 in the assay on ZR-75-1 was determined as 29 nM; with T-47D it was 55 nM.

Consider `CCC=CCC=CCC=CCC=CCC=CCC=CCCC(=O)OCn1ccc2c3c(ccc21)C(c1cncc(C)c1)C(C#N)=C(N)O3` (centres unmarked) [Example 39, 4,7,10,13,16,19-Docosahexaenoic acid {2-Amino-3-cyano-4-(5-methyl-pyridin-3-yl)-4H-pyrrolo[2,3-h]chromene}-7-ylmethyl ester], for which, in the assay on ZR-75-1, the “Caspase activity (Ratio)” value stood at 6.2 and the concentration for a half-maximal effect (EC50) amounted to 26 nM. Further, in the assay on T-47D, the “Caspase activity (Ratio)” value is 3.7 and the EC50 was found to be 51 nM.

Take `Cn1ccc2c3c(ccc21)C(c1cccc(F)c1)C(C#N)=C(N)O3` (centres unmarked) [Example 40A, 2-Amino-3-cyano-4-(3-fluorophenyl)-7-methyl-4H-pyrrolo[2,3-h]chromene]: the “Caspase activity (Ratio)” value in the assay with ZR-75-1 is given as 4.1; in the assay with T-47D it was 5.1. Besides, the results for the concentration for a half-maximal effect (EC50) in the assay with ZR-75-1 and with T-47D (T47D) were 7.2 nM and 14 nM, respectively.

Consider `Cn1ccc2c3c(ccc21)C(c1ccc(C#N)cc1)C(C#N)=C(N)O3` (centres unmarked) [Example 40B, 2-Amino-3-cyano-4-(4-cyanophenyl)-7-methyl-4H-pyrrolo[2,3-h]chromene], for which the “Caspase activity (Ratio)” value with ZR-75-1 was determined as 4.2; with T-47D, 4.9. Moreover, the EC50 in the assay on ZR-75-1 is 35 nM; in the assay with T-47D (T47D), 55 nM.

On to `Cn1ccc2c3c(ccc21)C(c1cccc(Cl)c1)C(C#N)=C(N)O3` (centres unmarked) [Example 40C, 2-Amino-3-cyano-4-(3-chlorophenyl)-7-methyl-4H-pyrrolo[2,3-h]chromene], for which the figures for the “Caspase activity (Ratio)” value with ZR-75-1 and in the assay with T-47D were 2.7 and 4.0, respectively. For the same compound, the results for the concentration giving a half-maximal response (EC50) with ZR-75-1 and with T-47D (T47D) were 7.9 nM and 14 nM, respectively.

For `Cn1ccc2c3c(ccc21)C(c1cc(Cl)cc(Cl)c1)C(C#N)=C(N)O3` (centres unmarked) [Example 40D, 2-Amino-3-cyano-4-(3,5-dichlorophenyl)-7-methyl-4H-pyrrolo[2,3-h]chromene], the “Caspase activity (Ratio)” value in the assay with ZR-75-1 came to 2.9; in the assay on T-47D it was 3.3. The EC50 in the assay on ZR-75-1 stood at 15 nM; in the assay on T-47D (T47D) it was 25 nM.

Values taken from patent publication US7528164B2, “Substituted 4-aryl-4h-pyrrolo[2,3-h]chromenes and analogs as activators of caspases and inducers of apoptosis and the use thereof” (Cytovia, Inc., priority 2002, dated 2009).
